Laboratory results as given in US8163768B2, “1,4-dihydropyridine-fused heterocycles, process for preparing the same, use and compositions containing them” (Aventis Pharma S.A.., priority 2005, dated 2012).
Where a name gives a salt, the structure may show the parent alone.

What was measured:
Aurora1 (Aurora-B) = molecular target: T1, Aurora1 (Aurora-B) (Homo sapiens, UniProt Q96GD4); assay: Aurora 1 (Aurora B) kinase radioactivity scintillation assay using nickel chelate Flash plates; assay type: biochemical; settings: 10 nM Aurora-B (co expressed with C3 fragment of INCEP), 500 nM NuMA substrate, 1 μM ATP with [33P] ATP, 5 mM MgCl2, 30 minutes, 37° C.
T1 construct: Aurora-B: the full length protein (His tagged in N-terminal) has been co expressed in SF9 cells; poly-histidine (N); made in house; host or cells: SF9 cells
In short: (§1)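 10 nM Aurora-B or Aurora-A with 500 nM NuMA-His substrate, 1 μM ATP plus [³³P]ATP, in 50 mM NaCl, 1 mM DTT and 5 mM (B) or 10 mM (A) MgCl2, 30 min at 37° C on nickel-chelate plates. Incorporated ³³P counted after washing, background-subtracted; IC50 fitted from % inhibition versus concentration.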

Aurora2 (Aurora-A) = molecular target: T2, Aurora2 (Aurora-A) (Homo sapiens, UniProt O14965); assay: Aurora 2 (Aurora A) kinase radioactivity scintillation assay using nickel chelate Flash plates; assay type: biochemical; settings: 10 nM Aurora-A, 500 nM NuMA substrate, 1 μM ATP with [33P] ATP, 10 mM MgCl2, 30 minutes, 37° C.
T2 construct: Aurora-A: the full length recombinant protein including an N-terminal poly-histidine tail has been expressed in E. coli; poly-histidine (N); made in house; host or cells: E. coli
T2 sequence (O14965 1-403): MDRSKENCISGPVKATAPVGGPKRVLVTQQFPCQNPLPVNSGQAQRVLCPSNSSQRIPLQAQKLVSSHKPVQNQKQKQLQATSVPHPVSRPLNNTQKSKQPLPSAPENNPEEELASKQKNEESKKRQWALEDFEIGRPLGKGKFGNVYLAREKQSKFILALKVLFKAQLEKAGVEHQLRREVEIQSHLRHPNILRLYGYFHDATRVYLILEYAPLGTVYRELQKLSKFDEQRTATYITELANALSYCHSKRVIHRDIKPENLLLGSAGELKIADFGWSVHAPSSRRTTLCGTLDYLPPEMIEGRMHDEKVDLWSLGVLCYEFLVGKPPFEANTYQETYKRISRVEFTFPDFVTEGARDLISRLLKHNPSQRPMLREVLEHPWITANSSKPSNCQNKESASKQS
In short: as §1

T1 sequence (Q96GD4 whole entry, species assumed, the tested form may be a part): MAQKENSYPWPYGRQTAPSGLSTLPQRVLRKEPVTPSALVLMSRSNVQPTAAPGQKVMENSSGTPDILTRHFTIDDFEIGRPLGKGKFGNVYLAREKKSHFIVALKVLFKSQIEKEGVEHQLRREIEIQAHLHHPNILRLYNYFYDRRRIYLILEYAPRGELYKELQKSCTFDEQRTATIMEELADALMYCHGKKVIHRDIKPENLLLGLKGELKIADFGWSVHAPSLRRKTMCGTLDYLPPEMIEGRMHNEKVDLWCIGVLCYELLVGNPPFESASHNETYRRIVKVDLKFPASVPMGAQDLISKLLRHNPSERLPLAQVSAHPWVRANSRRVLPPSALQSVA
T1 sequence (Q9NQS7 821-918 partner limits assumed, species assumed): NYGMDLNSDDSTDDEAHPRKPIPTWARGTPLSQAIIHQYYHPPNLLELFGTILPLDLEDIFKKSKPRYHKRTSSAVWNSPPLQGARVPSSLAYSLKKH

SMILES | IC50 (Aurora1 (Aurora-B)) [nM] | IC50 (Aurora2 (Aurora-A)) [nM]
CCOC(=O)c1[nH]cc2c1NC1=C(C(=O)CN(C(=O)OC(C)(C)C)C1)C2c1ccc(Sc2nc3cc(Cl)ccc3[nH]2)o1 (centres unmarked) [Example 130] | 37 | 434
CCOC(=O)c1[nH]cc2c1NC1=C(C(=O)CNC1)C2c1ccc(Sc2nc3cc(Cl)ccc3[nH]2)o1 (centres unmarked) [Example 131, 9-[5-(5-Chloro-1H-benzimidazol-2-ylsulfanyl)-furan-2-yl]-8-oxo-4,5,6,7,8,9-hexahydro-2H-pyrrolo[3,4-b]-1,7-naphthyridine-3-carboxylic acid ethyl ester hydrochloride] | 10 | 82
CCOC(=O)c1[nH]cc2c1NC1=C(C(=O)CCC1)C2c1ccc(Sc2nc3cc(C(F)(F)F)ccc3[nH]2)o1 (centres unmarked) [Example 132, 8-Oxo-9-[5-(5-trifluoromethyl-1H-benzimidazol-2-ylsulfanyl)-furan-2-yl]-4,5,6,7,8,9-hexahydro-2H-pyrrolo[3,4-b]quinoline-3-carboxylic acid ethyl ester] | 14 | 114
CCOC(=O)c1[nH]cc2c1NC1=C(C(=O)CCC1)C2c1ccc(Sc2nc3cc(Cl)c(C)cc3[nH]2)o1 (centres unmarked) [Example 133, 9-[5-(5-Chloro-6-methyl-1H-benzimidazol-2-ylsulfanyl)-furan-2-yl]-8-oxo-4,5,6,7,8,9-hexahydro-2H-pyrrolo[3,4-b]quinoline-3-carboxylic acid ethyl ester] | 5 | 31
CCOC(=O)c1[nH]cc2c1NC1=C(C(=O)CN(C(=O)OC(C)(C)C)C1)C2c1ccc(Sc2nc3cc(Cl)c(C)cc3[nH]2)o1 (centres unmarked) [Example 134] | 47 | 525
CCOC(=O)c1[nH]cc2c1NC1=C(C(=O)CNC1)C2c1ccc(Sc2nc3cc(Cl)c(C)cc3[nH]2)o1 (centres unmarked) [Example 135, 9-[5-(5-Chloro-6-methyl-1H-benzimidazol-2-ylsulfanyl)-furan-2-yl]-8-oxo-4,5,6,7,8,9-hexahydro-2H-pyrrolo[3,4-b]-1,7-naphthyridine-3-carboxylic acid ethyl ester hydrochloride] | 22 | 120
CCOC(=O)c1[nH]cc2c1NC1=C(C(=O)CCC1)C2c1ccc(Sc2nc3cc(Cl)cc(C)c3[nH]2)o1 (centres unmarked) [Example 136, 9-[5-(5-Chloro-7-methyl-1H-benzimidazol-2-ylsulfanyl)-furan-2-yl]-8-oxo-4,5,6,7,8,9-hexahydro-2H-pyrrolo[3,4-b]quinoline-3-carboxylic acid ethyl ester] | 12 | 18
CCOC(=O)c1[nH]cc2c1NC1=C(C(=O)CN(C(=O)OC(C)(C)C)C1)C2c1ccc(Sc2nc3cc(Cl)cc(C)c3[nH]2)o1 (centres unmarked) [Example 137, 6-tert-Butyloxy-9-[5-(5-chloro-7-methyl-1H-benzimidazol-2-ylsulfanyl)-furan-2-yl]-8-oxo-2,4,5,7,8,9-hexahydro-pyrrolo[3,4-b]-1,7-naphthyridine-3-carboxylic acid ethyl ester] | 93 | 205
CCOC(=O)c1[nH]cc2c1NC1=C(C(=O)CNC1)C2c1ccc(Sc2nc3cc(Cl)cc(C)c3[nH]2)o1 (centres unmarked) [Example 138, 9-[5-(5-Chloro-7-methyl-1H-benzimidazol-2-ylsulfanyl)-furan-2-yl]-8-oxo-4,5,6,7,8,9-hexahydro-2H-pyrrolo[3,4-b]-1,7-naphthyridine-3-carboxylic acid ethyl ester hydrochloride] | 6 | 8
CCOC(=O)c1[nH]cc2c1NC1=C(C(=O)CCC1)C2c1ccc(Sc2nc3cc4c(cc3[nH]2)OC(F)(F)O4)o1 (centres unmarked) [Example 139, 9-[5-(2,2-Difluoro-5H-[1,3]dioxolo[4′,5′:4,5]benzo[1,2-d]imidazol-6-ylsulfanyl)-furan-2-yl]-8-oxo-4,5,6,7,8,9-hexahydro-2H-pyrrolo[3,4-b]quinoline-3-carboxylic acid ethyl ester] | 19 | 124
CCOC(=O)c1[nH]cc2c1NC1=C(C(=O)CN(C(=O)OC(C)(C)C)C1)C2c1ccc(Sc2nc3cc4c(cc3[nH]2)OC(F)(F)O4)o1 (centres unmarked) [Example 140] | 1660 | 3900
CCOC(=O)c1[nH]cc2c1NC1=C(C(=O)CNC1)C2c1ccc(Sc2nc3cc4c(cc3[nH]2)OC(F)(F)O4)o1 (centres unmarked) [Example 141, 9-[5-(2,2-Difluoro-5H-[1,3]dioxolo[4′,5′:4,5]benzo[1,2-d]imidazol-6-ylsulfanyl)-furan-2-yl]-8-oxo-4,5,6,7,8,9-hexahydro-2H-pyrrolo[3,4-b]-1,7-naphthyridine-3-carboxylic acid ethyl ester hydrochloride] | 20 | 87
CCOC(=O)c1[nH]cc2c1NC1=C(C(=O)CNC1)C2c1ccc(Sc2nc3cc(F)cc(F)c3[nH]2)o1 (centres unmarked) [Example 143, 9-[5-(5,7-Difluoro-1H-benzimidazol-2-ylsulfanyl)-furan-2-yl]-8-oxo-4,5,6,7,8,9-hexahydro-2H-pyrrolo[3,4-b]-1,7-naphthyridine-3-carboxylic acid ethyl ester hydrochloride] | 7 | 26
O=C1CCCC2=C1C(c1ccc(Sc3nc4cc(F)cc(F)c4[nH]3)o1)c1c[nH]nc1N2 (centres unmarked) [Example 144, 4-[5-(5,7-Difluoro-1H-benzimidazol-2-ylsulfanyl)-furan-2-yl]-2,4,6,7,8,9-hexahydro-pyrazolo[3,4-b]quinolin-5-one] | 6 | 28
O=C1CNCC2=C1C(c1ccc(Sc3nc4cc(F)cc(F)c4[nH]3)o1)c1c[nH]nc1N2 (centres unmarked) [Example 145, 4-[5-(5,7-Difluoro-1H-benzimidazol-2-ylsulfanyl)-furan-2-yl]-2,4,6,7,8,9-hexahydro-pyrazolo[3,4b]-1,7-naphthyridin-5-one hydrochloride] | 16 | 131
CCOC(=O)c1[nH]cc2c1NC1=C(C(=O)CCC1)C2c1ccc(Sc2nc3cc(F)c(Cl)cc3[nH]2)o1 (centres unmarked) [Example 146, 9-[5-(6-Chloro-5-fluoro-1H-benzimidazol-2-ylsulfanyl)-furan-2-yl]-8-oxo-4,5,6,7,8,9-hexahydro-2H-pyrrolo[3,4-b]quinoline-3-carboxylic acid ethyl ester] | 6 | 41
CCOC(=O)c1[nH]cc2c1NC1=C(C(=O)CNC1)C2c1ccc(Sc2nc3cc(F)c(Cl)cc3[nH]2)o1 (centres unmarked) [Example 147, 9-[5-(6-Chloro-5-fluoro-1H-benzimidazol-2-ylsulfanyl)-furan-2-yl]-8-oxo-4,5,6,7,8,9-hexahydro-2H-pyrrolo[3,4-b]-1,7-naphthyridine-3-carboxylic acid ethyl ester hydrochloride] | 9 | 67
CCOC(=O)c1[nH]cc2c1NC1=C(C(=O)CNC1)C2c1ccc(Sc2nc3cc(F)ccc3[nH]2)o1 (centres unmarked) [Example 149, 9-[5-(5-Fluoro-1H-benzimidazol-2-ylsulfanyl)-furan-2-yl]-8-oxo-4,5,6,7,8,9-hexahydro-2H-pyrrolo[3,4-b]-1,7-naphthyridine-3-carboxylic acid ethyl ester hydrochloride] | 11 | 55
CCOC(=O)c1[nH]cc2c1NC1=C(C(=O)CCC1)C2c1ccc(Sc2nc3cc(OC(F)(F)F)ccc3[nH]2)o1 (centres unmarked) [Example 150, 8-Oxo-9-[5-(5-trifluoromethoxy-1H-benzimidazol-2-ylsulfanyl)-furan-2-yl]-4,5,6,7,8,9-hexahydro-2H-pyrrolo[3,4-b]quinoline-3-carboxylic acid ethyl ester] | 19 | 29
